# Measurements: patent publication US20260241012A1, “1,8-NAPHTHYRIDIN-2-ONE HETEROBIFUNCTIONAL BCL6 DEGRADERS” (Treeline Biosciences, Inc., priority 2022, published 2026)
# Biological target: T1, N-terminal HiBiT tagged BCL6 (Homo sapiens, UniProt P41182)
# T1 construct: expressed in transfected cells; host or cells: HT1080 (ATCC CCL-121), stably transduced with lentivirus pLV-UBC-N-HiBiT-BCL6-PGK-puro
# Test: HiBiT based degradation assay
# Format: cell-based
# Conditions: HT1080 cells expressing N-terminal HiBiT tagged BCL6, 5 hours of incubation; for Ymin (5 hr): BCL6 degradation normalized with DMSO control; for DC50: four-parameter logistic model, read-out: EC50 (5 hr)
# Summary of the method: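 Degradation measured by luminescence from the Nano-Glo HiBiT lytic reagent (15 min, room temperature), normalized to DMSO controls and fitted to a four-parameter curve.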
Structure (SMILES),Ymin (5 hr),DC50
"CNC(=O)COc1cc2cc(Nc3nc(N4CCN([C@@H](C)C5CCN(c6cccc7c(C8CCC(=O)NC8=O)nn(C)c67)CC5)CC4)ncc3Cl)cnc2n(C(C)C)c1=O (single isomer, unassigned) [Compound 195a]",++++ (Ymin < 30%),10 to 100 nM
"CNC(=O)COc1cc2cc(Nc3nc(N4CCC(CN5CCN(c6cccc7c(C8CCC(=O)NC8=O)nn(C)c67)[C@H](C)C5)CC4)ncc3F)cnc2n(C(C)C)c1=O (stereo partly drawn) [Compound 210b, 2-[[6-[[2-[4-[[(3R)-4-[3-(2,6-dioxo-3-piperidyl)-1-methyl-indazol-7-yl]-3-methyl-piperazin-1-yl]methyl]-1-piperidyl]-5-fluoro-pyrimidin-4-yl]amino]-1-isopropyl-2-oxo-1,8-naphthyridin-3-yl]oxy]-N-methyl-acetamide]",++++ (Ymin < 30%),10 to 100 nM
"CNC(=O)COc1cc2cc(Nc3nc(NC4CCC5(CC4)CN(c4ccc6c(C7CCC(=O)NC7=O)nn(C)c6c4)C5)ncc3Cl)cnc2n(C(C)C)c1=O (centres unmarked) [Compound 206, 2-[[6-[[5-chloro-2-[[2-[3-(2,6-dioxo-3-piperidyl)-1-methyl-indazol-6-yl]-2-azaspiro[3.5]nonan-7-yl]amino]pyrimidin-4-yl]amino]-1-isopropyl-2-oxo-1,8-naphthyridin-3-yl]oxy]-N-methyl-acetamide]",++++ (Ymin < 30%),< 10 nM
"CNC(=O)COc1cc2cc(Nc3nc(N4CCN(CC5CCN(c6cccc7c(C8CCC(=O)NC8=O)nn(C)c67)CC5)CC4)ncc3Cl)cnc2n(CC2CC2)c1=O (centres unmarked) [Compound 157, 2-((6-((5-chloro-2-(4-((1-(3-(2,6-dioxopiperidin-3-yl)-1-methyl-1H-indazol-7-yl)piperidin-4-yl)methyl)piperazin-1-yl)pyrimidin-4-yl)amino)-1-(cyclopropylmethyl)-2-oxo-1,2-dihydro-1,8-naphthyridin-3-yl)oxy)-N-methylacetamide]",++++ (Ymin < 30%),10 to 100 nM
"CNC(=O)COc1cc2cc(Nc3nc(N4CCC5(CCN(CC6CCN(c7cccc8c(C9CCC(=O)NC9=O)nn(C)c78)CC6)CC5)CC4)ncc3Cl)cnc2n(C)c1=O (centres unmarked) [Compound 113, 2-((6-((5-chloro-2-(9-((1-(3-(2,6-dioxopiperidin-3-yl)-1-methyl-1H-indazol-7-yl)piperidin-4-yl)methyl)-3,9-diazaspiro[5.5]undecan-3-yl)pyrimidin-4-yl)amino)-1-methyl-2-oxo-1,2-dihydro-1,8-naphthyridin-3-yl)oxy)-N-methylacetamide]",++++ (Ymin < 30%),10 to 100 nM
"CNC(=O)COc1cc2cc(Nc3nc(N4CCN(CC5CCN(c6cccc7c(C8CCC(=O)NC8=O)nn(C)c67)CC5)CC4)ncc3F)cnc2n(C)c1=O (centres unmarked) [Compound 135, 2-((6-((2-(4-((1-(3-(2,6-dioxopiperidin-3-yl)-1-methyl-1H-indazol-7-yl)piperidin-4-yl)methyl)piperazin-1-yl)-5-fluoropyrimidin-4-yl)amino)-1-methyl-2-oxo-1,2-dihydro-1,8-naphthyridin-3-yl)oxy)-N-methylacetamide]",++++ (Ymin < 30%),< 10 nM

# More lines, now with the values ahead:
Ymin (5 hr),DC50,Structure (SMILES)
++++ (Ymin < 30%),10 to 100 nM,"CNC(=O)COc1cc2cc(Nc3nc(N4CCC5(CCN(CC6CCN(c7cc8c(cc7F)c(C7CCC(=O)NC7=O)nn8C)CC6)CC5)CC4)ncc3Cl)cnc2n(C(C)C)c1=O (centres unmarked) [Compound 239, 2-((6-((5-chloro-2-(9-((1-(3-(2,6-dioxopiperidin-3-yl)-5-fluoro-1-methyl-1H-indazol-6-yl)piperidin-4-yl)methyl)-3,9-diazaspiro[5.5]undecan-3-yl)pyrimidin-4-yl)amino)-1-isopropyl-2-oxo-1,2-dihydro-1,8-naphthyridin-3-yl)oxy)-N-methylacetamide]"
+++ (30% ≤ Ymin < 50%),10 to 100 nM,"CNC(=O)COc1cc2cc(Nc3nc(N4CCN(CC5CCN(c6cccc7c(C8CCC(=O)NC8=O)nn(C)c67)CC5)C[C@H]4C)ncc3Cl)cnc2n(C(C)C)c1=O (stereo partly drawn) [Compound 168b, 2-[[6-[[5-chloro-2-[(2R)-4-[[1-[3-(2,6-dioxo-3-piperidyl)-1-methyl-indazol-7-yl]-4-piperidyl]methyl]-2-methyl-piperazin-1-yl]pyrimidin-4-yl]amino]-1-isopropyl-2-oxo-1,8-naphthyridin-3-yl]oxy]-N-methyl-acetamide]"
+++ (30% ≤ Ymin < 50%),< 10 nM,"CNC(=O)COc1cc2cc(Nc3nc(N4CCN(CC5CCN(c6ccc7c(C8CCC(=O)NC8=O)nn(C)c7c6)CC5)CC4)ncc3Cl)cnc2n(C(C)C)c1=O (centres unmarked) [Compound 104, 2-((6-((5-chloro-2-(4-((1-(3-(2,6-dioxopiperidin-3-yl)-1-methyl-1H-indazol-6-yl)piperidin-4-yl)methyl)piperazin-1-yl)pyrimidin-4-yl)amino)-1-isopropyl-2-oxo-1,2-dihydro-1,8-naphthyridin-3-yl)oxy)-N-methylacetamide]"
++ (50% ≤ Ymin < 70%),10 to 100 nM,"CNC(=O)COc1cc2cc(Nc3cc(N4CCC(CN5CCN(c6ccc7c(C8CCC(=O)NC8=O)nn(C)c7c6)CC5)CC4)ncc3Cl)cnc2n(C(C)C)c1=O (centres unmarked) [Compound 190, 2-[[6-[[5-chloro-2-[4-[[4-[3-(2,6-dioxo-3-piperidyl)-1-methyl-indazol-6-yl]piperazin-1-yl]methyl]-1-piperidyl]-4-pyridyl]amino]-1-isopropyl-2-oxo-1,8-naphthyridin-3-yl]oxy]-N-methyl-acetamide]"
